{"source": "paper PMC11809415", "about": "(The Journal of Cell Biology, 2025)", "key": {"[1]": {"test_system": "actin filaments", "details": "ref Belyy et al., 2020, Kumari et al.; cited from earlier work", "source_text": "(§1) To minimize steric clashes of large probes, small fluorophore-labeled peptides have been developed. The most commonly used is Lifeact, a 17-amino acid peptide derived from the N-terminus of the Saccharomyces cerevisiae actin-binding protein 140 (Abp140)."}, "[2]": {"test_system": "actin-dependent morphogenesis", "details": "certain experimental systems: yeast, Drosophila, C. elegans, zebrafish, mammalian cells; ref Courtemanche et al., 2016; Spracklen et al., 2014; Ono, 2024; Xu and Du, 2021; Flores et al., 2019; cited from earlier work", "source_text": "as §1"}, "[3]": {"test_system": "F-actin", "test": "Actin bundling assay using low-speed centrifugation (10,000 g)", "type": "biochemical, rabbit skeletal muscle α-actin", "details": "for F-actin in the pellet: 10 μM actin filaments, 5 min RT, 10,000 g", "method": "(§2) Rabbit skeletal muscle α-actin was purified from muscle acetone powder (Pel-Freez Biologicals) as described in [Merino et al. (2018)] and stored in 50 μl aliquots at −70°C.\n8 μl of actin filaments at 10 μM were mixed with peptides at the specified concentration, incubated for 5 min at room temperature, and spun down at 10,000 g for 10 min at 4°C. Aliquots of the supernatant and resuspended pellet fractions were separated on SDS-polyacrylamide gels with 2,2,2-trichloroethanol ([Ladner-Keay et al., 2018]) and visualized with ultraviolet light."}, "[4]": {"test_system": "actin (ADP-ribosylation by TcART, Photorhabdus luminescens)", "test": "ADP-ribosylation of actin by TcART in presence of actin-binding peptides", "type": "biochemical, rabbit skeletal muscle α-actin", "details": "for ADP-ribosylation level: relative to no peptide = 1, […] actin, 314 pM TcART, 10 min 37°C", "method": "as §2\nTcART, the ADP-ribosyltransferase from P. luminescens Tc toxin, was purified from E. coli BL21-CodonPlus(DE3)-RIPL harboring the plasmid pB656 as described previously ([Belyy et al., 2022]).\nA total of 8-μl mixtures of 2 μg (4.8 μM final concentration) actin and actin-binding peptides at specified concentrations were preincubated for 5 min at room temperature in the buffer containing 1 mM NAD, 20 mM Tris pH 8, 150 mM NaCl, and 1 mM MgCl2. The ADP ribosylation reaction was initiated by the addition of 0.2 ng (314 pM) of TcART to the mixture. After 10 min of incubation at 37°C, the reaction was stopped by adding Laemmli sample buffer and heating the sample at 95°C for 5 min. The components of the mixture were separated by SDS-PAGE, blotted onto a polyvinylidene difluoride (PVDF) membrane using a Trans-Blot Turbo Transfer System (Bio-Rad), and visualized using a combination of the His-tagged ADP-ribose binding protein at the concentration of 0.01 mg/ml and HisProbe-HRP conjugate. The level of actin ADP-ribosylation was quantified by densitometry using ImageJ."}, "[5]": {"test_system": "cells", "details": "ref Vosatka et al., 2022; cited from earlier work", "source_text": "(§3) However, in Xenopus XTC cells, expr ..."}, "[6]": {"test_system": "Drosophila", "details": "ref Spracklen et al., 2014; cited from earlier work", "source_text": "as §3"}, "[7]": {"test_system": "Xenopus XTC cells", "details": "ref Belin et al., 2014; cited from earlier work", "source_text": "as §3"}, "[8]": {"test_system": "primary neurons", "details": "ref Patel et al., 2017; cited from earlier work", "source_text": "as §3"}, "[9]": {"test_system": "F-actin", "test": "Cryo-EM of peptide mixed with F-actin", "type": "binding, rabbit skeletal muscle α-actin", "method": "as §2\nActin filaments were prepared as for cosedimentation assays. Shortly before plunging, F-actin was diluted to 6 µM with F-buffer. […] 3 μl of sample was applied onto a freshly glow-discharged copper R2/1 300 mesh grid (Quantifoil), blotted for 8 s on both sides with blotting force −15, and plunge-frozen in liquid ethane using the Vitrobot Mark IV system (Thermo Fisher Scientific) at 13°C and 100% humidity.\nThe datasets were collected using a Talos Arctica transmission electron microscope (Thermo Fisher Scientific) equipped with an XFEG at 200 kV using the automated data-collection software EPU version 2.7 (Thermo Fisher Scientific). Two images per hole with a defocus range of −0.5 to −2.5 µm were collected with a K3 detector (Gatan) operated in super-resolution mode. […] After motion correction was performed in Relion (RRID:SCR_016274) version 3.1, the micrographs were imported into Cryosparc for patch CTF estimation. […]\nBefore deposition, the structures were refined in real space in Phenix (RRID:SCR_014224) ([Liebschner et al., 2019]) with secondary structure and reference model restraints. The statistics presented in Table 1 were calculated by MolProbity (RRID:SCR_014226) ([Williams et al., 2018])."}}}
{"substance": "Lifeact: 17-amino acid peptide derived from the N-terminus of Saccharomyces cerevisiae actin-binding protein 140 (Abp140) [reference compound]", "values": [{"measurement": "competition for binding site on actin filaments", "setting": "[1]", "value": "competes with cofilin, myosin, and other actin-binding factors for the same binding site on actin filaments"}, {"measurement": "effect on actin-dependent morphogenesis", "setting": "[2]", "value": "dramatically altered actin-dependent morphogenesis"}, {"measurement": "F-actin in the pellet", "setting": "[3]; peptide 10 µM, Repeat 1", "value": "0,07218"}, {"measurement": "F-actin in the pellet", "setting": "[3]; peptide 10 µM, Repeat 2", "value": "0,09382"}, {"measurement": "F-actin in the pellet", "setting": "[3]; peptide 10 µM, Repeat 3", "value": "0,137443"}, {"measurement": "F-actin in the pellet", "setting": "[3]; peptide 100 µM, Repeat 1", "value": "0,1046"}, {"measurement": "F-actin in the pellet", "setting": "[3]; peptide 100 µM, Repeat 2", "value": "0,117135"}, {"measurement": "F-actin in the pellet", "setting": "[3]; peptide 100 µM, Repeat 3", "value": "0,14654"}, {"measurement": "F-actin in the pellet", "setting": "[3]; peptide 1000 µM, Repeat 1", "value": "0,339777"}, {"measurement": "F-actin in the pellet", "setting": "[3]; peptide 1000 µM, Repeat 2", "value": "0,164721"}, {"measurement": "F-actin in the pellet", "setting": "[3]; peptide 1000 µM, Repeat 3", "value": "0,309232"}, {"measurement": "ADP-ribosylation level", "setting": "[4]; peptide 1 µM, Repeat 1", "value": "0,978733"}, {"measurement": "ADP-ribosylation level", "setting": "[4]; peptide 1 µM, Repeat 2", "value": "0,811616"}, {"measurement": "ADP-ribosylation level", "setting": "[4]; peptide 1 µM, Repeat 3", "value": "1,268379"}, {"measurement": "ADP-ribosylation level", "setting": "[4]; peptide 3 µM, Repeat 1", "value": "0,825802"}, {"measurement": "ADP-ribosylation level", "setting": "[4]; peptide 3 µM, Repeat 2", "value": "0,671345"}, {"measurement": "ADP-ribosylation level", "setting": "[4]; peptide 3 µM, Repeat 3", "value": "1,323177"}, {"measurement": "ADP-ribosylation level", "setting": "[4]; peptide 10 µM, Repeat 1", "value": "0,671724"}, {"measurement": "ADP-ribosylation level", "setting": "[4]; peptide 10 µM, Repeat 2", "value": "1,132312"}, {"measurement": "ADP-ribosylation level", "setting": "[4]; peptide 10 µM, Repeat 3", "value": "0,970817"}, {"measurement": "ADP-ribosylation level", "setting": "[4]; peptide 30 µM, Repeat 1", "value": "0,313245"}, {"measurement": "ADP-ribosylation level", "setting": "[4]; peptide 30 µM, Repeat 2", "value": "0,438167"}, {"measurement": "ADP-ribosylation level", "setting": "[4]; peptide 30 µM, Repeat 3", "value": "0,331448"}, {"measurement": "ADP-ribosylation level", "setting": "[4]; peptide 100 µM, Repeat 1", "value": 0}, {"measurement": "ADP-ribosylation level", "setting": "[4]; peptide 100 µM, Repeat 2", "value": "0,032044"}, {"measurement": "ADP-ribosylation level", "setting": "[4]; peptide 100 µM, Repeat 3", "value": "0,093063"}, {"measurement": "effect on TcART modification of F-actin (in words)", "setting": "[4]; peptides up to 100 µM", "value": "inhibited TcART activity in a similar dose-dependent manner"}]}
{"substance": "MARPRGAGPCSPGLERAPRRSVGELRLLFEARCAAVAAAAAAG [F-tractin, 43 amino acid peptide, residues 10–52 of rat inositol 1,4,5-trisphosphate 3-kinase A; EGFP fusion in cell assays]", "values": [{"measurement": "actin bundling (in words)", "setting": "[3]; in vitro, up to 100 µM, low-speed centrifugation and cryo-EM", "value": "strong bundling effect on F-actin"}, {"measurement": "F-actin in the pellet", "setting": "[3]; peptide 1 µM, Repeat 1", "value": "0,052087"}, {"measurement": "F-actin in the pellet", "setting": "[3]; peptide 1 µM, Repeat 2", "value": "0,032888"}, {"measurement": "F-actin in the pellet", "setting": "[3]; peptide 1 µM, Repeat 3", "value": "0,047528"}, {"measurement": "F-actin in the pellet", "setting": "[3]; peptide 10 µM, Repeat 1", "value": "0,092603"}, {"measurement": "F-actin in the pellet", "setting": "[3]; peptide 10 µM, Repeat 2", "value": "0,600815"}, {"measurement": "F-actin in the pellet", "setting": "[3]; peptide 10 µM, Repeat 3", "value": "0,323365"}, {"measurement": "F-actin in the pellet", "setting": "[3]; peptide 100 µM, Repeat 1", "value": "0,999376"}, {"measurement": "F-actin in the pellet", "setting": "[3]; peptide 100 µM, Repeat 2", "value": "0,989657"}, {"measurement": "F-actin in the pellet", "setting": "[3]; peptide 100 µM, Repeat 3", "value": "0,931572"}, {"measurement": "cell stiffness and cell migration", "setting": "[5]", "value": "increase in cell stiffness and reduction in cell migration"}, {"measurement": "effect on fertility and actin in Drosophila oogenesis", "setting": "[6]", "value": "without causing female sterility or significant actin defects"}, {"measurement": "effect of expression on actin structures", "setting": "[7]", "value": "induced radial actin bundles and longer filopodia"}, {"measurement": "reporting on F-actin organization in primary neurons", "setting": "[8]", "value": "without notable effects on cell function"}, {"measurement": "F-tractin occupancy on F-actin", "setting": "[9]; estimated from alignment-free 3D classification, 100 μM peptide", "value": "~ 50%"}, {"measurement": "appearance of actin filaments by cryo-EM", "setting": "[9]; preformed F-actin incubated with 100 μM peptide", "value": "large heterogeneous bundles instead of single actin filaments"}]}
